In patent US11325913B2, “Compounds and methods for the treatment of malaria” (THE BROAD INSTITUTE, INC., priority 2013, dated 2022) one finds EC50 data, which are given here for 24 molecules.

In the assay the test system is P. falciparum Dd2. Description: Activity against the Dd2 strain of P. falciparum (SYBR Green I, 72 h). As to conditions: P. falciparum Dd2, 72 h incubation. The assay is classed as cell-based. How it is done: The Dd2 strain of P. falciparum was cultured in complete medium (RPMI with L-glutamine, 4.3% heat-inactivated O-positive human serum, 2.08 mg/ml albumax, 0.013 mg/ml hypoxanthine, 1.17 mg/ml glucose, 0.18% NaHCO3, 0.031 M Hepes, 2.60 mM NaOH, and 0.043 mg/ml gentamicin) until the parasitemia reached 3-8%. Parasitemia was determined by checking at least 500 red blood cells from a Giemsa-stained blood smear. The Dd2 cultures along with tested O-positive red blood cells were centrifuged at room temperature at 2,000 rpm for 5 minutes using an Eppendorf centrifuge 5810R with an A-4-81 rotor. The medium was aspirated off. For the compound screening, a parasite dilution at a 1% parasitemia and 1.0% hematocrit was created with screening medium (RPMI with L-glutamine, 4.16 mg/ml albumax II, 0.013 mg/ml hypoxanthine, 1.73 mg/ml glucose, 0.18% NaHCO3, 0.031 M Hepes, 2.60 mM NaOH, and 0.043 mg/ml gentamicin). The suspension was gassed with 93% nitrogen, 4% carbon dioxide, and 3% oxygen and placed at 37° C. until needed. Using a liquid dispenser, 20 μl of screening medium was dispensed into 384-well, black, clear-bottom plates. With a PinTool, 100 nl of compounds dissolved in DMSO was transferred into the assay plates along with control compound (mefloquine). Next, 30 μl of the parasite suspension in screening medium was then dispensed into the assay plates such that the final parasitemia was 1% and the final hematocrit was 1.0%. Final concentration of DMSO was 0.125%. Mefloquine at a final concentration of 20 μM and DMSO at a final concentration of 0.125% were used within the assay plates to serve as background and baseline controls, respectively. The assay plates were transferred to incubators (93% nitrogen, 4% carbon dioxide, and 3% oxygen during the 72 h incubation at 37° C.). Ten microliters of detection reagent consisting of 10×SYBR Green I (Invitrogen; supplied in 10,000× concentration) in lysis buffer (20 mM Tris-HCl, 5 mM EDTA, 0.16% Saponin wt/vol, 1.6% Triton X vol/vol) was dispensed into the assay plates. For optimal staining, the assay plates were left at room temperature for 24 h in the dark. The assay plates were read by using an Envision (PerkinElmer) reader, with 505 dichroic mirrors with 485-nm excitation and 530-nm emission settings, and the plate reads were from the bottom.
By following the above-described protocol, the 50% effective concentration (EC50) for compounds 1-95 was measured against P. falciparum Dd2 and the results are shown in Table 2: […]

[1] abbreviates: Plasmodium falciparum, DD2, 72 h.

Molecules are shown by their SMILES.

Under setting [1], `COc1ccc(NC(=O)N2CCCCN3[C@H](CO)[C@H](c4ccc(-c5ccccc5)cc4)[C@@H]3C2)cc1` [Compound 41, (8R,9R,10S)-10-(hydroxymethyl)-N-(4-methoxyphenyl)-9-(4-phenylphenyl)-1,6-diazabicyclo[6.2.0] decane-6-carboxamide] returned an EC50 of 9830 nM.
Molecule `COc1ccc(NC(=O)N2CCCCN3[C@@H](CO)[C@H](c4ccc(C#Cc5ccccn5)cc4)[C@@H]3C2)cc1` [Compound 25, (8R,9R,10R)-10-(hydroxymethyl)-N-(4-methoxyphenyl)-9-(4-(pyridin-2-ylethynyl)phenyl)-1,6-diazabicyclo[6.2.0] decane-6-carboxamide] returned an EC50 under setting [1] of 155 nM.
As to `O=C(Nc1ccncc1)N1CCCCN2[C@H](CO)[C@H](c3ccc(C#Cc4ccccc4)cc3)[C@@H]2C1` [Compound 50, (8R,9R,10S)-10-(hydroxymethyl)-9-[4-(2-phenylethynyl)phenyl]-N-(pyridin-4-yl)-1,6-diazabicyclo[6.2.0] decane-6-carboxamide], the concentration for a half-maximal effect (EC50) under setting [1] is 1230 nM.
In turn, `COc1ccc(NC(=O)N2CCCCN3[C@H](COCC(=O)O)[C@H](c4ccc(C#Cc5ccccc5)cc4)[C@@H]3C2)cc1` [Compound 35, 2-{[(8R,9R,10S)-6-[(4-methoxyphenyl)carbamoyl]-9-[4-(2-phenylethynyl)phenyl]-1,6-diazabicyclo[6.2.0]decan-10-yl]methoxy}acetic acid] yielded a concentration giving a half-maximal response (EC50) under setting [1] of 65 nM.
On the same count and under the same terms, the value for `COc1ccc(C(=O)N2CCCCN3[C@H](CO)[C@H](c4ccc(C#Cc5ccccc5)cc4)[C@@H]3C2)cc1` [Compound 36, [(8R,9R,10S)-6-(4-methoxybenzoyl)-9-[4-(2-phenylethynyl)phenyl]-1,6-diazabicyclo[6.2.0]decan-10-yl]methanol] was 7900 nM.
Take `N#Cc1ccc(NC(=O)N2CCCCN3[C@H](CO)[C@H](c4ccc(C#Cc5ccccc5)cc4)[C@@H]3C2)cc1` [Compound 93, (8R,9R,10S)-N-(4-cyanophenyl)-10-(hydroxymethyl)-9-(4-(phenylethynyl)phenyl)-1,6-diazabicyclo[6.2.0] decane-6-carboxamide]: under setting [1], a half-maximal effect (EC50) was put at 138 nM.
With `COc1ccc(NC(=O)N2CCCCN3[C@H](CO)[C@H](c4ccc(C#Cc5ccc(F)cc5F)cc4)[C@@H]3C2)cc1` [Compound 75, (8R,9R,10S)-9-{4-[2-(2,4-difluorophenyl)ethynyl]phenyl}-10-(hydroxymethyl)-N-(4-methoxyphenyl)-1,6-diazabicyclo[6.2.0] decane-6-carboxamide], under setting [1], the EC50 came out at 71 nM.
`COc1ccc(NC(=O)N2CCCCN3[C@H](CO)[C@H](c4ccc(C#Cc5ccc(F)c(F)c5)cc4)[C@@H]3C2)cc1` [Compound 71, (8R,9R,10S)-9-{4-[2-(3,4-difluorophenyl)ethynyl]phenyl}-10-(hydroxymethyl)-N-(4-methoxyphenyl)-1,6-diazabicyclo[6.2.0] decane-6-carboxamide] yielded an EC50 under setting [1] of 34 nM.
Same read-out and setting: the same measure for `COc1ccc(NC(=O)N(C)C[C@H]2[C@@H](c3ccc(C#Cc4ccccc4)cc3)[C@@H](CO)N2C)cc1` [Compound 95, 1-(((2R,3R,4S)-4-(hydroxymethyl)-1-methyl-3-(4-(phenylethynyl)phenyl)azetidin-2-yl)methyl)-3-(4-methoxyphenyl)-1-methylurea]: 5000 nM.
Regarding `COc1ccccc1NC(=O)N1CCCCN2[C@@H](CO)[C@H](c3ccc(C#CC4CCCC4)cc3)[C@@H]2C1` [Compound 23, (8R,9R,10R)-9-(4-(cyclopentylethynyl)phenyl)-10-(hydroxymethyl)-N-(2-methoxyphenyl)-1,6-diazabicyclo[6.2.0] decane-6-carboxamide], a half-maximal effect under setting [1] (EC50) was put at 386 nM.
In the case of `OC[C@@H]1[C@H](c2ccc(-c3ccccc3)cc2)[C@H]2CN(CCC(F)(F)F)CCCCN12` [Compound 21, ((8S,9R,10S)-9-([1,1′-biphenyl]-4-yl)-6-(3,3,3-trifluoropropyl)-1,6-diazabicyclo[6.2.0]decan-10-yl)methanol], the EC50 under setting [1] is 623 nM.
For the molecule `O=C(Nc1ccc(OCCN2CCOCC2)cc1)N1CCCCN2[C@H](CO)[C@H](c3ccc(C#Cc4ccccc4)cc3)[C@@H]2C1` [Compound 83, (8R,9R,10S)-10-(hydroxymethyl)-N-(4-(2-morpholinoethoxy)phenyl)-9-(4-(phenylethynyl)phenyl)-1,6-diazabicyclo[6.2.0] decane-6-carboxamide], the EC50 under setting [1] was determined as 24 nM.
Consider `COc1ccccc1NC(=O)N1CCCCN2[C@H](CO)[C@H](c3ccc(C#Cc4ccccc4)cc3)[C@@H]2C1` [Compound 3, (8R,9R,10S)-10-(hydroxymethyl)-N-(2-methoxyphenyl)-9-(4-(phenylethynyl)phenyl)-1,6-diazabicyclo[6.2.0] decane-6-carboxamide], for which the EC50 under setting [1] came out at 118 nM.
With `COc1ccc(NC(=O)N2CCCCN3[C@@H](CN4CCOCC4)[C@H](c4ccc(C#Cc5ccccc5)cc4)[C@@H]3C2)cc1` [Compound 84, (8R,9S,10R)-N-(4-methoxyphenyl)-10-(morpholinomethyl)-9-(4-(phenylethynyl)phenyl)-1,6-diazabicyclo[6.2.0] decane-6-carboxamide], a half-maximal effect under setting [1] (EC50) was put at 52 nM.
As for `O=C(Nc1ccccc1)N1CCCCN2[C@@H](CO)[C@H](c3ccc(C#Cc4cccnc4)cc3)[C@@H]2C1` [Compound 6, (8R,9R,10R)-10-(hydroxymethyl)-N-phenyl-9-(4-(pyridin-3-ylethynyl)phenyl)-1,6-diazabicyclo[6.2.0] decane-6-carboxamide], a half-maximal effect under setting [1] (EC50) was put at 552 nM.
Under setting [1], `O=C(Nc1cccc(F)c1)N1CCCCN2[C@@H](CO)[C@H](c3ccc(C#Cc4cccnc4)cc3)[C@@H]2C1` [Compound 28, (8R,9R,10R)-N-(3-fluorophenyl)-10-(hydroxymethyl)-9-(4-(pyridin-3-ylethynyl)phenyl)-1,6-diazabicyclo[6.2.0] decane-6-carboxamide] showed an EC50 of 368 nM.
`O=C(Nc1ccccc1)N1CCCCN2[C@H](CO)[C@H](c3ccc(C#Cc4ccccc4)cc3)[C@@H]2C1` [Compound 78, (8R,9R,10S)-10-(hydroxymethyl)-N-phenyl-9-[4-(2-phenylethynyl)phenyl]-1,6-diazabicyclo[6.2.0] decane-6-carboxamide]: a half-maximal response (EC50) required 61 nM.
In turn, `COc1ccc(NC(=O)N2CCCCN3[C@H](CO)[C@H](c4ccc(C#CCC(C)C)cc4)[C@@H]3C2)cc1` [Compound 24, (8R,9R,10S)-10-(hydroxymethyl)-N-(4-methoxyphenyl)-9-(4-(4-methylpent-1-yn-1-yl)phenyl)-1,6-diazabicyclo[6.2.0] decane-6-carboxamide] gave an EC50 under setting [1] of 418 nM.
Turning to `COc1ccc(NC(=O)N2CCCCN3[C@H](C(=O)O)[C@H](c4ccc(C#Cc5ccccc5)cc4)[C@@H]3C2)cc1` [Compound 53, (8R,9R,10S)-6-[(4-methoxyphenyl)carbamoyl]-9-[4-(2-phenylethynyl)phenyl]-1,6-diazabicyclo[6.2.0] decane-10-carboxylic acid], the EC50 under setting [1] worked out at 2770 nM.
The molecule `Cc1cccc(-c2ccc([C@H]3[C@H]4CN(S(=O)(=O)c5cccc(C)c5)CCCCN4[C@H]3CO)cc2)c1` [Compound 7, ((8S,9S,10R)-9-(3′-methyl-[1,1′-biphenyl]-4-yl)-6-(m-tolylsulfonyl)-1,6-diazabicyclo[6.2.0]decan-10-yl)methanol] showed an EC50 under setting [1] of 1190 nM.
For `COc1cccc(CN2CCCCN3[C@H](CO)[C@@H](c4ccc(C#Cc5cccnc5)cc4)[C@H]3C2)c1` [Compound 17, ((8S,9S,10S)-6-(3-methoxybenzyl)-9-(4-(pyridin-3-ylethynyl)phenyl)-1,6-diazabicyclo[6.2.0]decan-10-yl)methanol], the EC50 under setting [1] was determined as 560 nM.
For `COc1cccc(NC(=O)N2CCCCN3[C@H](CO)[C@H](c4ccc(C#Cc5ccccc5)cc4)[C@@H]3C2)c1` [Compound 56], the EC50 under setting [1] was 80 nM.
Regarding `COc1ccc(NC(=O)N2CCCCN3[C@H](CO)[C@H](c4ccc(-c5cccc(F)c5)cc4)[C@@H]3C2)cc1` [Compound 67, (8R,9R,10S)-9-[4-(3-fluorophenyl)phenyl]-10-(hydroxymethyl)-N-(4-methoxyphenyl)-1,6-diazabicyclo[6.2.0] decane-6-carboxamide], the EC50 under setting [1] worked out at 19500 nM.
Still for that read-out and setting: the value for `COc1ccc(NC(=O)N2CCCCN3[C@@H](COCCC(=O)N4CCOCC4)[C@H](c4ccc(C#Cc5ccccc5)cc4)[C@@H]3C2)cc1` [Compound 91, (8R,9R,10R)-N-(4-methoxyphenyl)-10-((3-morpholino-3-oxopropoxy)methyl)-9-(4-(phenylethynyl)phenyl)-1,6-diazabicyclo[6.2.0] decane-6-carboxamide] was 14 nM.

One may read the EC50 as the concentration at which the effect is half-maximal.
